The text below walks through data of US8653070B2, “Hepatitis C virus inhibitors” (Enanta Pharmaceuticals, Inc., priority 2009, dated 2014).

The test system of this experiment is HCV 1b genotype replicon. Kind of experiment: HCV replicon assay (qRT-PCR or luciferase), genotype-1b replicon. Type of experiment: cell-based. The conditions noted are these: Hepatitis C virus, HCV 1b replicon. An excerpt: HCV replicon cell lines (kindly provided by R. Bartenschlager) isolated from colonies as described by Lohman et. al. (Lohman et al. (1999) Science 285: 110-113, expressly incorporated by reference in its entirety) and used for all experiments. The HCV replicon has the nucleic acid sequence set forth in EMBL Accession No.: AJ242651, the coding sequence of which is from nucleotides 1801 to 8406.
The coding sequence of the published HCV replicon was synthesized and subsequently assembled in a modified plasmid pBR322 (Promega, Madison, Wis.) using standard molecular biology techniques. One replicon cell line (“SGR 11-7”) stably expresses HCV replicon RNA which consists of (i) the HCV 5′UTR fused to the first 12 amino acids of the capsid protein, (ii) the neomycin phosphotransferase gene (neo), (iii) the IRES from encephalomyocarditis virus (EMCV) and (iv) HCV NS2 to NS5B genes and the HCV 3′UTR. Another replicon cell line (“Huh-luc/neo-ET”) described by Vrolijk et. al. (Vrolijk et. al. (2003) Journal of Virological Methods 110:201-209, expressly incorporated by reference in its entirety) stably expresses HCV replicon RNA which consists of (i) the HCV 5′UTR fused to the first 12 amino acids of the capsid protein, (ii) the firefly luciferase reporter gene, (iii) the ubiquitin gene, (iv) the neomycin phosphotransferase gene (neo), (v) the IRES from encephalomyocarditis virus (EMCV) and (vi) HCV NS3 to NS5B genes that harbor cell culture adaptive mutations (E1202G, T12801, K1846T) and the HCV 3′UTR.
These cell lines are maintained at 37° C., 5% CO2, 100% relative humidity in DMEM (Cat#11965-084, Invitrogen), with 10% fetal calf serum (“FCS”, Invitrogen), 1% non-essential amino acids (Invitrogen), 1% of Glutamax (Invitrogen), 1% of 100× penicillin/streptomycin (Cat#15140-122, Invitrogen) and Geneticin (Cat#10131-027, Invitrogen) at 0.75 mg/ml or 0.5 mg/ml for 11-7 and Huh-luc/neo-ET cells, respectively.
EC50 values of single agent compounds and combinations are determined by HCV RNA detection using quantitative RT-PCR, according to the manufacturer's instructions, with a TAQMAN® One-Step RT-PCR Master Mix Reagents Kit (Cat# AB 4309169, Applied Biosystems) on an ABI Model 7500 thermocycler. The TAQMAN primers to use for detecting and quantifying HCV RNA obtained from Integrated DNA Technologies. HCV RNA is normalized to GAPDH RNA levels in drug-treated cells, which is detected and quantified using the Human GAPDH Endogenous Control Mix (Applied Biosystems, AB 4310884E). Total cellular RNA is purified from 96-well plates using the RNAqueous 96 kit (Ambion, Cat# AM1812). Chemical agent cytotoxicity is evaluated using an MTS assay according to the manufacturer's directions (Promega).
Since clinical drug resistance often develops in viral infections following single agent therapies, there is a need to assess the additive, antagonistic, or synergistic properties of combination therapies. We used the HCV replicon system to assess the potential use of the compound of the present invention or in combination therapies with Interferon alpha, cyclosporine analogs and inhibitors targeting other HCV proteins. The acute effects of a single or combinations of drugs are studied in the “Huh-luc/neo-ET” replicon with each chemical agent titrated in an X or Y direction in a 6 point two-fold dilution curve centered around the EC50 of each drug. Briefly, replicon cells are seeded at 7,000 cells per well in 90 ul DMEM (without phenol red, Invitrogen Cat.#31053-036) per well with 10% FCS, 1% non-essential amino acids, 1% of Glutamax and 1% of 100× penicillin/streptomycin and incubated overnight at 37° C., 5% CO2, 100% relative humidity. […]

[1] abbreviates: read-out: Genotype-1b replicon EC50.
Where [2] appears, read: read-out: Genotype-1b replicon EC50 Range.

Like-named read-outs stand apart in the source and are kept apart here.

In the case of `C=C1C[C@@H](c2nc(-c3ccc(C#Cc4ccc5[nH]c([C@@H]6CCCN6C(=O)[C@@H](NC(=O)OC)C(C)C)nc5c4)cc3)c[nH]2)N(C(=O)[C@@H](NC(=O)OC)C(C)C)C1` [Example 300], the EC50 is 4.4 pM under setting [1] and below 10 pM under setting [2].

As to `C=C1C[C@@H](c2nc(-c3ccc(C#Cc4ccc5[nH]c([C@@H]6C[C@@]7(CC=CCO7)CN6C(=O)[C@@H](NC(=O)OC)C(C)C)nc5c4)cc3)c[nH]2)N(C(=O)[C@@H](NC(=O)OC)C(C)C)C1` [Example 327], under setting [2], the concentration giving a half-maximal response (EC50) is below 10 pM.

On to `C=C1C[C@@H](c2nc(-c3ccc(C#Cc4ccc5[nH]c([C@@H]6CC7(CC7)CN6C(=O)[C@@H](NC(=O)OC)C(C)C)nc5c4)cc3)c[nH]2)N(C(=O)[C@@H](NC(=O)OC)C(C)C)C1` [Example 325], for which the EC50 reads like this: under setting [1], 5.9 pM; under setting [2], below 10 pM.

For the compound `C=C1C[C@@H](c2nc(-c3ccc(C#Cc4ccc5[nH]c([C@@H]6CC(=C)CN6C(=O)[C@@H](NC(=O)OC)C(C)C)nc5c4)cc3)c[nH]2)N(C(=O)[C@@H](NC(=O)OC)C(C)C)C1` [Example 336], the EC50 under setting [1] was determined as 6.4 pM and the EC50 under setting [2] is below 10 pM.

As for `CON=C1C[C@@H](c2nc3cc(C#Cc4ccc(-c5c[nH]c([C@@H]6CCCN6C(=O)[C@@H](NC(=O)OC)C(C)C)n5)cc4)ccc3[nH]2)N(C(=O)[C@@H](NC(=O)OC)C(C)C)C1` [Example 316], the EC50 under setting [2] was below 10 pM.

Consider `C=C1C[C@@H](c2nc(-c3ccc(C#Cc4ccc5[nH]c([C@@H]6C[C@@]7(CCCOC7)CN6C(=O)[C@@H](NC(=O)OC)C(C)C)nc5c4)cc3)c[nH]2)N(C(=O)[C@@H](NC(=O)OC)C(C)C)C1` [Example 331], for which the EC50 was 13.7 pM under setting [1] and 10 to 1000 pM under setting [2].

In the case of `C=C1C[C@@H](c2nc3cc(C#Cc4ccc(-c5c[nH]c([C@@H]6CCCN6C(=O)[C@@H](NC(=O)OC)C(C)C)n5)cc4)ccc3[nH]2)N(C(=O)[C@@H](NC(=O)OC)C(C)C)C1` [Example 83], the EC50 reads like this: under setting [1], 5.7 pM; under setting [2], below 10 pM.

For `C=C1C[C@@H](c2nc(-c3ccc(C#Cc4ccc5[nH]c([C@@H]6C[C@]7(CCOC7)CN6C(=O)[C@@H](NC(=O)OC)C(C)C)nc5c4)cc3)c[nH]2)N(C(=O)[C@@H](NC(=O)OC)C(C)C)C1` [Example 323], the EC50 runs as follows: under setting [1], 9.2 pM; under setting [2], below 10 pM.

For the compound `C=C1C[C@@H](c2nc(-c3ccc(C#Cc4ccc5[nH]c([C@@H]6C[C@]7(CCCOC7)CN6C(=O)[C@@H](NC(=O)OC)C(C)C)nc5c4)cc3)c[nH]2)N(C(=O)[C@@H](NC(=O)OC)C(C)C)C1` [Example 329], the EC50 under setting [2] was below 10 pM.

`C=C1C[C@@H](c2nc(-c3ccc(C#Cc4ccc5[nH]c([C@@H]6C[C@@]7(CCOC7)CN6C(=O)[C@@H](NC(=O)OC)C(C)C)nc5c4)cc3)c[nH]2)N(C(=O)[C@@H](NC(=O)OC)C(C)C)C1` [Example 321]: the EC50 under setting [2] was 10 to 1000 pM.

Turning to `C=C1C[C@@H](c2nc(-c3ccc(C#Cc4ccc5[nH]c([C@@H]6C[C@@]7(CCCO7)CN6C(=O)[C@@H](NC(=O)OC)C(C)C)nc5c4)cc3)c[nH]2)N(C(=O)[C@@H](NC(=O)OC)C(C)C)C1` [Example 319], the EC50 under setting [2] was in the range of 10 to 1000 pM.

For `COC(=O)N[C@H](C(=O)N1CCC[C@H]1c1nc(-c2ccc(C#Cc3ccc4[nH]c([C@@H]5CC(=C6CC6)CN5C(=O)[C@@H](NC(=O)OC)C(C)C)nc4c3)cc2)c[nH]1)C(C)C` [Example 334], the EC50 is 13 pM under setting [1] and 10 to 1000 pM under setting [2].

Regarding `C=C1C[C@@H](c2nc(-c3ccc(-c4ccc(-c5c[nH]c([C@@H]6CCCN6C(=O)[C@@H](NC(=O)OC)C(C)C)n5)cc4)cc3)c[nH]2)N(C(=O)[C@@H](NC(=O)OC)C(C)C)C1` [Example 252], the half-maximal effective concentration (EC50) was 11.2 pM under setting [1] and 10 to 1000 pM under setting [2].
